Reference: ChEMBL document CHEMBL2157909, “Design, synthesis, spectral and biological evaluation of novel 1-allyl substituted 2,6-diphenylpiperidin-4-ones and its derivatives of oximes/oxime ethers” (2012)
Converted amounts (≈) assume the structure as drawn.

Columns and labels:
Staphylococcus aureus = assay: Antibacterial activity against Staphylococcus aureus ATCC 25930 after 24 hrs by two fold serial dilution method; type: functional; conditions: ATCC 25930, 24 h
Rhizopus = assay: Antifungal activity against Rhizopus sp. ATCC 2842 after 72 to 96 hrs by two fold serial dilution method; type: functional
Penicillium chrysogenum = assay: Antifungal activity against Penicillium chrysogenum ATCC 28089 after 72 to 96 hrs by two fold serial dilution method; type: functional
Fusarium oxysporum = assay: Antifungal activity against Fusarium oxysporum ATCC 48112 after 72 to 96 hrs by two fold serial dilution method; type: functional
Bacillus subtilis = assay: Antibacterial activity against Bacillus subtilis ATCC 530 after 24 hrs by two fold serial dilution method; type: functional; conditions: ATCC 530, 24 h
Escherichia coli = assay: Antibacterial activity against Escherichia coli ATCC 26032 after 24 hrs by two fold serial dilution method; type: functional; conditions: ATCC 26032, 24 h
Salmonella typhi = assay: Antibacterial activity against Salmonella typhi ATCC 25021 after 24 hrs by two fold serial dilution method; type: functional, Salmonella enterica subsp. enterica serovar Typhi; conditions: Salmonella enterica, ATCC 25021, 24 h
Pseudomonas = assay: Antibacterial activity against Pseudomonas ATCC 27853 after 24 hrs by two fold serial dilution method; type: functional; conditions: ATCC 27853, 24 h
Aspergillus niger = assay: Antifungal activity against Aspergillus niger ATCC 635 after 72 to 96 hrs by two fold serial dilution method; type: functional
Aspergillus flavus = assay: Antifungal activity against Aspergillus flavus ATCC 525 after 72 to 96 hrs by two fold serial dilution method; type: functional
[1] = Ratio of MIC for Bacillus subtilis ATCC 530 to MIC for Salmonella typhi ATCC 25021; type: functional
[2] = Ratio of MIC for Pseudomonas ATCC 27853 to MIC for Salmonella typhi ATCC 25021; type: functional

**Q.** With `C=CCN1[C@H](c2ccccc2)CC(=O)[C@@H](C)[C@@H]1c1ccccc1` (relative stereo) as the compound, how does the MIC (Staphylococcus aureus) read?
**A.** 100 µg/mL (≈ 327 µM)

**Q.** What about the MIC (Rhizopus) of the same compound?
**A.** 200 µg/mL (≈ 655 µM)

**Q.** And the MIC (Penicillium chrysogenum)?
**A.** 50 µg/mL (≈ 164 µM)

**Q.** And the MIC (Fusarium oxysporum)?
**A.** 100 µg/mL (≈ 327 µM)

**Q.** What about the MIC (Bacillus subtilis) of the same compound?
**A.** 200 µg/mL (≈ 655 µM)

**Q.** And the MIC (Escherichia coli)?
**A.** 100 µg/mL (≈ 327 µM)

**Q.** What about the MIC (Salmonella typhi) of the same compound?
**A.** 50 µg/mL (≈ 164 µM)

**Q.** What about the MIC (Pseudomonas) of the same compound?
**A.** 200 µg/mL (≈ 655 µM)

**Q.** And the MIC (Aspergillus niger)?
**A.** 50 µg/mL (≈ 164 µM)

**Q.** What about the MIC (Aspergillus flavus) of the same compound?
**A.** 50 µg/mL (≈ 164 µM)

**Q.** Which MIC (Staphylococcus aureus) does the source give for `C=CCN1[C@H](c2ccc(C)cc2)CC(=O)[C@@H](C)[C@@H]1c1ccc(C)cc1` (relative stereo) here?
**A.** 50 µg/mL (≈ 150 µM)

**Q.** And the MIC (Rhizopus)?
**A.** 6.25 µg/mL (≈ 18.7 µM)

**Q.** And the MIC (Penicillium chrysogenum)?
**A.** 25 µg/mL (≈ 75 µM)

**Q.** And the MIC (Fusarium oxysporum)?
**A.** 25 µg/mL (≈ 75 µM)

**Q.** What about the MIC (Bacillus subtilis) of the same compound?
**A.** 100 µg/mL (≈ 300 µM)

**Q.** What about the MIC (Escherichia coli) of the same compound?
**A.** 25 µg/mL (≈ 75 µM)

**Q.** What about the MIC (Salmonella typhi) of the same compound?
**A.** 12.5 µg/mL (≈ 37.5 µM)

**Q.** And the MIC (Pseudomonas)?
**A.** 50 µg/mL (≈ 150 µM)

**Q.** What about the Ratio [1] of the same compound?
**A.** 3

**Q.** What about the MIC (Aspergillus niger) of the same compound?
**A.** 50 µg/mL (≈ 150 µM)

**Q.** What about the MIC (Aspergillus flavus) of the same compound?
**A.** 50 µg/mL (≈ 150 µM)

**Q.** And the Ratio [2]?
**A.** 2

**Q.** For `C=CCN1[C@H](c2ccc(Cl)cc2)CC(=O)[C@@H](C)[C@@H]1c1ccc(Cl)cc1` (relative stereo), which MIC (Staphylococcus aureus) is on record?
**A.** 25 µg/mL (≈ 66.8 µM)

**Q.** What about the MIC (Rhizopus) of the same compound?
**A.** 25 µg/mL (≈ 66.8 µM)

**Q.** And the MIC (Penicillium chrysogenum)?
**A.** 6.25 µg/mL (≈ 16.7 µM)

**Q.** What about the MIC (Fusarium oxysporum) of the same compound?
**A.** 12.5 µg/mL (≈ 33.4 µM)

**Q.** And the MIC (Bacillus subtilis)?
**A.** 50 µg/mL (≈ 134 µM)

**Q.** And the MIC (Escherichia coli)?
**A.** 12.5 µg/mL (≈ 33.4 µM)

**Q.** And the MIC (Salmonella typhi)?
**A.** 12.5 µg/mL (≈ 33.4 µM)

**Q.** What about the MIC (Pseudomonas) of the same compound?
**A.** 50 µg/mL (≈ 134 µM)

**Q.** What about the MIC (Aspergillus niger) of the same compound?
**A.** 50 µg/mL (≈ 134 µM)

**Q.** What about the MIC (Aspergillus flavus) of the same compound?
**A.** 25 µg/mL (≈ 66.8 µM)

**Q.** For `C=CCN1[C@H](c2ccc(OC)cc2)CC(=O)[C@@H](C)[C@@H]1c1ccc(OC)cc1` (relative stereo), which MIC (Staphylococcus aureus) is on record?
**A.** 100 µg/mL (≈ 274 µM)

**Q.** And the MIC (Rhizopus)?
**A.** 25 µg/mL (≈ 68.4 µM)

**Q.** What about the MIC (Penicillium chrysogenum) of the same compound?
**A.** 50 µg/mL (≈ 137 µM)

**Q.** And the MIC (Fusarium oxysporum)?
**A.** 25 µg/mL (≈ 68.4 µM)

**Q.** What about the MIC (Bacillus subtilis) of the same compound?
**A.** 6.25 µg/mL (≈ 17.1 µM)

**Q.** What about the MIC (Escherichia coli) of the same compound?
**A.** 50 µg/mL (≈ 137 µM)

**Q.** What about the MIC (Salmonella typhi) of the same compound?
**A.** 25 µg/mL (≈ 68.4 µM)

**Q.** And the MIC (Pseudomonas)?
**A.** 100 µg/mL (≈ 274 µM)

**Q.** What about the MIC (Aspergillus niger) of the same compound?
**A.** 12.5 µg/mL (≈ 34.2 µM)

**Q.** What about the MIC (Aspergillus flavus) of the same compound?
**A.** 50 µg/mL (≈ 137 µM)

**Q.** Which MIC (Staphylococcus aureus) does the source give for `C=CCN1[C@H](c2ccccc2)CC(=O)[C@@H](CC)[C@@H]1c1ccccc1` (relative stereo) here?
**A.** 100 µg/mL (≈ 313 µM)

**Q.** What about the MIC (Rhizopus) of the same compound?
**A.** 12.5 µg/mL (≈ 39.1 µM)

**Q.** What about the MIC (Penicillium chrysogenum) of the same compound?
**A.** 25 µg/mL (≈ 78.3 µM)

**Q.** What about the MIC (Fusarium oxysporum) of the same compound?
**A.** 50 µg/mL (≈ 157 µM)

**Q.** What about the MIC (Bacillus subtilis) of the same compound?
**A.** 12.5 µg/mL (≈ 39.1 µM)

**Q.** And the MIC (Escherichia coli)?
**A.** 50 µg/mL (≈ 157 µM)

**Q.** And the MIC (Salmonella typhi)?
**A.** 100 µg/mL (≈ 313 µM)

**Q.** What about the MIC (Pseudomonas) of the same compound?
**A.** 100 µg/mL (≈ 313 µM)

**Q.** What about the MIC (Aspergillus niger) of the same compound?
**A.** 25 µg/mL (≈ 78.3 µM)

**Q.** And the MIC (Aspergillus flavus)?
**A.** 100 µg/mL (≈ 313 µM)

**Q.** With `C=CCN1[C@H](c2ccc(C)cc2)C/C(=N\O)[C@@H](C)[C@@H]1c1ccc(C)cc1` (relative stereo) as the compound, how does the MIC (Staphylococcus aureus) read?
**A.** 200 µg/mL (≈ 574 µM)

**Q.** And the MIC (Rhizopus)?
**A.** 100 µg/mL (≈ 287 µM)

**Q.** What about the MIC (Penicillium chrysogenum) of the same compound?
**A.** 200 µg/mL (≈ 574 µM)

**Q.** And the MIC (Fusarium oxysporum)?
**A.** 25 µg/mL (≈ 71.7 µM)

**Q.** What about the MIC (Bacillus subtilis) of the same compound?
**A.** 50 µg/mL (≈ 143 µM)

**Q.** What about the MIC (Escherichia coli) of the same compound?
**A.** 50 µg/mL (≈ 143 µM)

**Q.** What about the MIC (Salmonella typhi) of the same compound?
**A.** 12.5 µg/mL (≈ 35.9 µM)

**Q.** What about the MIC (Pseudomonas) of the same compound?
**A.** 25 µg/mL (≈ 71.7 µM)

**Q.** And the Ratio [1]?
**A.** 3

**Q.** What about the MIC (Aspergillus niger) of the same compound?
**A.** 12.5 µg/mL (≈ 35.9 µM)

**Q.** What about the MIC (Aspergillus flavus) of the same compound?
**A.** 50 µg/mL (≈ 143 µM)

**Q.** What about the Ratio [2] of the same compound?
**A.** 2
